# Source: patent publication US20130109682A1, “CYCLIC ETHER COMPOUNDS USEFUL AS KINASE INHIBITORS” (NOVARTIS AG, priority 2010, published 2013)
# pEC50, pIC50: −log10 of the molar value.
# Legend:
# GSK3β = GSK3β (Homo sapiens, UniProt P49841); assay: GSK3β ATP depletion assay; type: biochemical; conditions: read-out: GSK3b IC50
# How it was run: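 Kinase activity is read as ATP consumption: luciferase luminescence reports the ATP remaining once roughly half of the 2 μM ATP is used. Reaction mix: 5 nM GSK3β, 10 μM b-CREB peptide, 50 mM Tris pH 7.5, 15 mM MgCl2, 1 mM DTT, 0.1% BSA, 2.5% DMSO. Enzyme and peptide are preincubated 15 min before ATP is added.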
# [1] = test system: KMS11 (human myeloma cell line); assay: Cell proliferation assay (CellTiter-Glo), KMS11; type: cell-based; conditions: Homo sapiens, KMS-11; KMS11-Luc cells
# How it was run: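 EC50 derived from CellTiter-Glo luminescence after 3-day exposure at 37° C. Compound was diluted to 2× in medium and added to an equal volume of cells. KMS11 myeloma cells were plated on assay day at 2000/well in IMDM with 10% FBS and sodium pyruvate.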
# PIM1 = PIM1 (Homo sapiens, UniProt P11309); assay: KinaseGlo Pim1 ATP depletion assay; type: biochemical
# PIM1, sequence (P11309 whole entry): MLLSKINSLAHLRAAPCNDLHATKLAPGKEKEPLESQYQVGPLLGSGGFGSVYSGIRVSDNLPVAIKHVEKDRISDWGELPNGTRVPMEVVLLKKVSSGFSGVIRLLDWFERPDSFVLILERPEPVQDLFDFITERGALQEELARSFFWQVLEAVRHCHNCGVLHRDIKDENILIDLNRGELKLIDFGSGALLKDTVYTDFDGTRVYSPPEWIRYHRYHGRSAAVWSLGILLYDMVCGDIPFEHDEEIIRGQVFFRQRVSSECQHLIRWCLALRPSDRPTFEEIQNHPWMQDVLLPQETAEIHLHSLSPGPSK
# How it was run: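 IC50 is derived from residual ATP measured by KinaseGlo Plus luminescence once about half the ATP was consumed. Final conditions were 20 μM ATP, 40 μM BAD peptide and 2.5 nM kinase in HEPES pH 7.5 buffer with MgCl2, DTT and BSA, plus 2.5% DMSO. Compound and enzyme were premixed 15 min before ATP addition.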
# PIM3 = PIM3 (Homo sapiens, UniProt Q86V86); assay: KinaseGlo Pim3 ATP depletion assay; type: biochemical
# How it was run: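 Residual ATP was detected by luciferase luminescence once about half had been consumed. The reaction contained 5 nM enzyme, 100 μM BAD peptide (RSRHSSYPAGT) and 40 μM ATP in 50 mM HEPES pH 7.5, 5 mM MgCl2, 1 mM DTT and 0.05% BSA with 2.5% DMSO. Compound and enzyme/peptide were premixed 15 min before ATP.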
# PIM2 = PIM2 (Homo sapiens, UniProt Q9P1W9); assay: KinaseGlo Pim2 ATP depletion assay; type: biochemical
# PIM2, sequence (Q9P1W9 whole entry): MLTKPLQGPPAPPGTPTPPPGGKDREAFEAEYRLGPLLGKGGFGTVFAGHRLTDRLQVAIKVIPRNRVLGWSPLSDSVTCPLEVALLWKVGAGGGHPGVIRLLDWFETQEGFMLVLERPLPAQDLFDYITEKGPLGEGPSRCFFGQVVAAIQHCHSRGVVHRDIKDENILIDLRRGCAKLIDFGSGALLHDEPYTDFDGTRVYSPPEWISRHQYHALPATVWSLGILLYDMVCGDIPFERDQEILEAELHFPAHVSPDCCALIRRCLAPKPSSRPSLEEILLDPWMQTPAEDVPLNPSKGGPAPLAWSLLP
# How it was run: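 Compound sat 15 min with enzyme and BAD peptide before ATP was added; final levels 5 nM PIM2, 10 μM peptide, 4 μM ATP, 2.5% DMSO, pH 7.5 HEPES buffer with MgCl2, DTT, BSA. Stopped near 50% ATP consumption; remaining ATP measured by luciferase luminescence.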
# GSK3β, sequence (P49841 whole entry, species assumed): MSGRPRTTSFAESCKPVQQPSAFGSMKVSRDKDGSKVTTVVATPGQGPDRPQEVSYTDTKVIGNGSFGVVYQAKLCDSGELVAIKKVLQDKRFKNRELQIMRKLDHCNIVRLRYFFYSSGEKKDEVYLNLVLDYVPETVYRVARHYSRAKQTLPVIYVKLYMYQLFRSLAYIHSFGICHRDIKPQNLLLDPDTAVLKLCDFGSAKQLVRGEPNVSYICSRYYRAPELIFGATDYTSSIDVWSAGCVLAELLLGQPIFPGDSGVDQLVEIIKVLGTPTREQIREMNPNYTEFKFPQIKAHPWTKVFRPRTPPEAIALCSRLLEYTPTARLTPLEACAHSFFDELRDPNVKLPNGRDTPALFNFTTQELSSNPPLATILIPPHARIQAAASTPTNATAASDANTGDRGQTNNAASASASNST
Structure (SMILES),pIC50 (GSK3β),pEC50 [1],pIC50 (PIM1),pIC50 (PIM3),pIC50 (PIM2)
"CC[C@H]1O[C@@H](c2ccncc2NC(=O)c2ccc(F)c(-c3c(F)ccc(C#N)c3F)n2)C[C@@H](O)[C@@H]1O [Example 2, 6-(3-cyano-2,6-difluorophenyl)-N-(4-((2R,4R,5S,6R)-6-ethyl-4,5-dihydroxytetrahydro-2H-pyran-2-yl)pyridin-3-yl)-5-fluoropicolinamide]",7.29,< 5.00,7.38,8.08,7.89
"CC[C@H]1O[C@@H](c2ccncc2NC(=O)c2nc(-c3c(F)cccc3F)ncc2N)C[C@@H](O)[C@@H]1O [Example 18, 5-amino-2-(2,6-difluorophenyl)-N-(4-((2R,4R,5S,6R)-6-ethyl-4,5-dihydroxytetrahydro-2H-pyran-2-yl)pyridin-3-yl)pyrimidine-4-carboxamide]",6.72,5.24,8.52,8.30,8.30
"CC1(C)O[C@H](c2ccncc2NC(=O)c2ccc(F)c(-c3c(F)cccc3F)n2)C[C@@H](O)[C@H]1O [Example 91, 6-(2,6-difluorophenyl)-N-(4-((2S,4R,5R)-4,5-dihydroxy-6,6-dimethyltetrahydro-2H-pyran-2-yl)pyridin-3-yl)-5-fluoropicolinamide]",6.77,5.15,8.52,7.89,7.33
"C[C@H]1O[C@@H](c2ccncc2NC(=O)c2nc(-c3c(F)cccc3F)ncc2N)C[C@@H](O)[C@]1(C)O [Example 146, 5-amino-2-(2,6-difluorophenyl)-N-(4-((2R,4R,5S,6R)-4,5-dihydroxy-5,6-dimethyltetrahydro-2H-pyran-2-yl)pyridin-3-yl)pyrimidine-4-carboxamide]",6.46,< 5.00,8.24,8.29,8.02
"NC(=O)C[C@H]1O[C@@H](c2ccncc2NC(=O)c2ccc(F)c(-c3c(F)cccc3F)n2)C[C@@H](O)[C@@H]1O [Example 142, N-(4-((2R,4R,5S,6R)-6-(2-amino-2-oxoethyl)-4,5-dihydroxytetrahydro-2H-pyran-2-yl)pyridin-3-yl)-6-(2,6-difluorophenyl)-5-fluoropicolinamide]",< 4.60,< 5.00,5.97,6.05,5.18
"CC[C@H]1O[C@@H](c2ccncc2NC(=O)c2nc(-c3c(F)cccc3F)c(F)cc2N)C[C@@H](O)[C@@H]1O [Example 43, 3-amino-6-(2,6-difluorophenyl)-N-(4-((2R,4R,5S,6R)-6-ethyl-4,5-dihydroxytetrahydro-2H-pyran-2-yl)pyridin-3-yl)-5-fluoropicolinamide]",6.73,5.77,9.00,9.00,9.00
"N#C[C@H]1O[C@@H](c2ccncc2NC(=O)c2nc(-c3nccs3)ccc2N)C[C@@H](O)[C@@H]1O [Example 150, 3-amino-N-(4-((2R,4R,5S,6R)-6-cyano-4,5-dihydroxytetrahydro-2H-pyran-2-yl)pyridin-3-yl)-6-(thiazol-2-yl)picolinamide]",6.68,< 5.00,7.24,7.27,6.81
"N#CC[C@H]1O[C@@H](c2ccncc2NC(=O)c2nc(-c3c(F)cccc3F)c(F)cc2N)C[C@@H](O)[C@@H]1O [Example 139, 3-amino-N-(4-((2R,4R,5S,6R)-6-(cyanomethyl)-4,5-dihydroxytetrahydro-2H-pyran-2-yl)pyridin-3-yl)-6-(2,6-difluorophenyl)-5-fluoropicolinamide]",6.35,< 5.00,9.00,8.70,8.30
"Nc1cnc(-c2c(F)cccc2F)nc1C(=O)Nc1cnccc1[C@@H]1C[C@H](O)[C@@H](O)[C@H](C2CC2)O1 [Example 205, 5-amino-N-(4-((2S,4S,5R,6S)-6-cyclopropyl-4,5-dihydroxytetrahydro-2H-pyran-2-yl)pyridin-3-yl)-2-(2,6-difluorophenyl)pyrimidine-4-carboxamide]",5.73,< 5.00,7.43,7.16,7.34
"C[C@@H]1O[C@H](c2ccncc2NC(=O)c2csc(-c3c(F)cccc3F)n2)C[C@H](O)[C@H]1O (stereo in doubt) [Example 135, 2-(2,6-difluorophenyl)-N-(4-((2S,4S,5R,6S)-4,5-dihydroxy-6-methyltetrahydro-2H-pyran-2-yl)pyridin-3-yl)thiazole-4-carboxamide]",7.12,< 5.00,9.00,8.15,6.83
"O=C(Nc1cnccc1[C@@H]1C[C@H](O)[C@]2(O)CCC[C@@H]2O1)c1c[nH]cc(-c2ccccc2)c1=O [Example 184, N-(4-((2S,4S,4aR,7aS)-4,4a-dihydroxyoctahydrocyclopenta[b]pyran-2-yl)pyridin-3-yl)-4-oxo-5-phenyl-1,4-dihydropyridine-3-carboxamide]",< 4.60,< 5.00,< 4.60,< 4.60,< 4.60
"CC[C@H]1O[C@@H](c2ccncc2NC(=O)c2ccc(F)c(-c3c(F)cccc3F)n2)C[C@@H](O)[C@]1(C)O [Example 164, 6-(2,6-difluorophenyl)-N-(4-((2R,4R,5S,6R)-6-ethyl-4,5-dihydroxy-5-methyltetrahydro-2H-pyran-2-yl)pyridin-3-yl)-5-fluoropicolinamide]",5.68,5.56,9.10,8.80,8.72
"CC[C@@H]1O[C@H](c2ccncc2NC(=O)c2nc(-c3c(F)cccc3F)ncc2N)C[C@H](O)[C@@]1(C)O [Example 167, 5-amino-2-(2,6-difluorophenyl)-N-(4-((2S,4S,5R,6S)-6-ethyl-4,5-dihydroxy-5-methyltetrahydro-2H-pyran-2-yl)pyridin-3-yl)pyrimidine-4-carboxamide]",5.47,< 5.00,7.18,7.06,7.04
"Nc1cnc(-c2c(F)cccc2F)nc1C(=O)Nc1cnccc1[C@@H]1C[C@H](O)[C@]2(O)CCCC[C@@H]2O1 [Example 175, 5-amino-2-(2,6-difluorophenyl)-N-(4-((2S,4S,4aR,8aS)-4,4a-dihydroxyoctahydro-2H-chromen-2-yl)pyridin-3-yl)pyrimidine-4-carboxamide]",6.22,< 5.00,7.45,7.24,7.23
"C[C@H]1O[C@@H](c2ccncc2NC(=O)c2nc(-c3c(F)cccc3F)c(F)cc2N)C[C@@H](O)[C@]1(C)O [Example 33, 3-amino-6-(2,6-difluorophenyl)-N-(4-((2R,4R,5S,6R)-4,5-dihydroxy-5,6-dimethyltetrahydro-2H-pyran-2-yl)pyridin-3-yl)-5-fluoropicolinamide]",6.56,5.34,9.00,8.70,8.70
"CC[C@]1(O)[C@H](O)C[C@H](c2ccncc2NC(=O)c2ccc(F)c(-c3c(F)cccc3F)n2)O[C@@H]1C (stereo in doubt) [Example 77, 6-(2,6-difluorophenyl)-N-(4-((2R,4R,5S,6R)-5-ethyl-4,5-dihydroxy-6-methyltetrahydro-2H-pyran-2-yl)pyridin-3-yl)-5-fluoropicolinamide]",5.31,5.19,7.30,6.63,6.12
"O=C(Nc1cnccc1[C@@H]1C[C@H](O)[C@]2(O)CCC[C@@H]2O1)c1ccnn(-c2ccccc2F)c1=O [Example 203, N-(4-((2S,4S,4aR,7aS)-4,4a-dihydroxyoctahydrocyclopenta[b]pyran-2-yl)pyridin-3-yl)-2-(2-fluorophenyl)-3-oxo-2,3-dihydropyridazine-4-carboxamide]",6.27,< 5.00,5.18,4.62,< 3.60
"C[C@@H]1C[C@H](O)C[C@H](c2ccncc2NC(=O)c2ccc(F)c(-c3c(F)cccc3F)n2)O1 (stereo in doubt) [Example 126, 6-(2,6-difluorophenyl)-5-fluoro-N-(4-((2R,4S,6R)-4-hydroxy-6-methyltetrahydro-2H-pyran-2-yl)pyridin-3-yl)picolinamide]",6.26,< 5.00,8.40,7.28,6.67
